Assay results reported in patent US20120088731A1, “METHOD FOR TREATING PARKINSON'S DISEASE THROUGH REGULATING VDAC1 PROTEIN” (SNU R&DB FOUNDATION, priority 2010, published 2012).

Key:
Assay type in all cases: cell-based
[1] = test system: cultured rat hippocampal neurons transfected with parkin shRNA; assay: Mitochondrial fragmentation in neurons transfected with parkin shRNA (immunocytochemistry); details: AA 48 hours, CsA 24 hours, Ru360 24 hours; for dendritic mitochondrial fragmentation induced by parkin knockdown (FIG. 4): VDAC1 shRNA 72 hours transfection, parkin shRNA at 13 DIV; for relative numbers of the neurons containing fragmented mitochondria (FIG. 5): parkin-knockdowned hippocampal neurons, VDAC1 shRNA 72 hours
Excerpt: EGFP was used as a fluorescence marker to confirm the transfection of neuron with shRNA vector, and DsRed2-mito [pDsRed2-mito (Clontech)] was used as a fluorescence marker to observe mitochondria in neurons.

[2] = test system: cultured rat hippocampal neurons transfected with PINK1 shRNA; assay: Mitochondrial fragmentation in neurons transfected with PINK1 shRNA (immunocytochemistry); details: AA 48 hours, CsA 24 hours, Ru360 24 hours; for dendritic mitochondrial fragmentation induced by knockdown of PINK1 (FIG. 7): VDAC1 shRNA 72 hours transfection, PINK1 shRNA at 13 DIV; for relative number of the neurons containing fragmented mitochondria (FIG. 8): PINK1-knockdowned hippocampal neurons, VDAC1 shRNA 72 hours
[3] = test system: parkin null mouse mDA neurons; assay: Mitochondrial defects of parkin null mouse mDA neurons (immunocytochemistry); details: for level of the elongated mitochondria (FIG. 9): parkin null mDA neurons treated for 24 hours, 7 DIV; for relative numbers of the neurons containing fragmented mitochondria (FIG. 10): parkin null mouse mDA neurons, compared to heterozygous littermates
Protocol: (§1) Primary mouse DA neuron cultures were prepared from embryonic day (E) 13.5 mouse midbrain of parkin heterogeneous(+/−) and null(−/−) embryos [Neurobasal Media (Invitrogen)].

[4] = test system: parkin null mouse mDA neurons; assay: Synaptic activity (mEPSCs) of parkin null mouse mDA neurons; details: condition same as Experiment 6
Protocol: as §1
It was examined whether PINK1-Parkin-VDAC1 pathway regulates the synaptic activity of the mDA neurons. To this end, the frequency and amplitude of miniature excitatory postsynaptic currents (mEPSCs) of parkin heterozygous and null mouse mDA neurons were measured.

Molecule | dendritic mitochondrial fragmentation induced by parkin knockdown (FIG. 4) [1] | relative numbers of the neurons containing fragmented mitochondria (FIG. 5) [1] | dendritic mitochondrial fragmentation induced by knockdown of PINK1 (FIG. 7) [2] | relative number of the neurons containing fragmented mitochondria (FIG. 8) [2] | level of the elongated mitochondria (FIG. 9) [3] | relative numbers of the neurons containing fragmented mitochondria (FIG. 10) [3] | frequency of mEPSCs (FIG. 12a) [4]
C[C@H]1[C@H](C)CC[C@]2(C(=O)O)CC[C@]3(C)C(=CC[C@@H]4[C@@]5(C)C[C@@H](O)[C@H](O)[C@@](C)(CO)[C@@H]5CC[C@]43C)[C@H]12 [AA, asiatic acid] | suppressed the dendritic mitochondrial fragmentation induced by parkin knockdown | prevents dendritic mitochondrial fragmentation in parkin-knockdowned hippocampal neurons and/or restores the fragmented mitochondria to normal elongated morphology | suppressed the dendritic mitochondrial fragmentation induced by knockdown of PINK1 | prevents dendritic mitochondrial fragmentation in PINK1-knockdowned hippocampal neurons and/or restores the fragmented mitochondria to normal elongated morphology | showed a significantly restored level of the elongated mitochondria | significantly prevented mitochondrial fragmentation in parkin null mouse mDA neurons | restored the frequency of mEPSCs up to the level of heterozygotic neurons
Ru360 | suppressed the dendritic mitochondrial fragmentation induced by parkin knockdown | prevents dendritic mitochondrial fragmentation in parkin-knockdowned hippocampal neurons and/or restores the fragmented mitochondria to normal elongated morphology | suppressed the dendritic mitochondrial fragmentation induced by knockdown of PINK1 | prevents dendritic mitochondrial fragmentation in PINK1-knockdowned hippocampal neurons and/or restores the fragmented mitochondria to normal elongated morphology | showed a significantly restored level of the elongated mitochondria | significantly prevented mitochondrial fragmentation in parkin null mouse mDA neurons | restored the frequency of mEPSCs up to the level of heterozygotic neurons
cyclosporine A [CsA] | suppressed the dendritic mitochondrial fragmentation induced by parkin knockdown |  | suppressed the dendritic mitochondrial fragmentation induced by knockdown of PINK1 |  |  |  | 
